Measured values from patent US12435062B2, “Amide compounds and uses thereof” (HUTCHISON MEDIPHARMA LIMITED, priority 2020, dated 2025).

Columns and labels:
[1] = target: Recombinant human CSF1R kinase (Homo sapiens (Human), UniProt P07333); assay type: biochemical; conditions: Z-LYTE Tyr 1 peptide substrate
Experimental: Measurement of CSF1R Kinase Activity at Molecular Level
1. Reagents and materials:
• Z-LYTE™ Tyr 1 peptide substrate: Invitrogen, PV3190; • 5× kinase buffer: Invitrogen, PV3189; • 10 mM ATP: Invitrogen, PV3227; • Development reagent B: Invitrogen, PV3295; • Development buffer: Invitrogen, P3127; • Stopping solution: Invitrogen, P3094; • Recombinant human CSF1R kinase: Invitrogen, PR4598A; • 384 well plate, black: Corning, 3575; Envision: Perkin Elmer. 2. Preparation of reaction solutions
1) 1.33× kinase buffer: 5× kinase buffer was diluted to a 1.33× kinase buffer with ddH2O.
2) Dilution of a 4× test compound: The test compound was diluted in gradient to 4-fold the reaction concentration and the concentration of DMSO was kept at 8%. The final concentration of the compound in reaction was: 1, 0.33, 0.11, 0.037, 0.012, 0.004, 0.0014, 0.00046 μM, and the final concentration of DMSO was 2%.
3) A mixture of kinase/peptide substrate: In 1.33× kinase buffer, the kinase and Z-LYTE™ Tyr 1 peptide substrate were diluted to 0.12 μg/mL and 4 μM, respectively, to prepare a mixture of kinase/peptide substrate. The mixture was mixed gently with a pipette.
4) A phosphorylated peptide substrate solution (PP solution): 0.4 μL of Z-LYTE™ Tyr1 phosphorylated peptide substrate was added to 99.6 μL of 1.33× kinase buffer.
5) ATP solution: 10 mM of ATP was diluted to 760 μM with 1.33× kinase buffer to prepare ATP solution.
6) Development solution: Development reagent B was diluted with Development buffer at a ratio of 1:200.
1) Kinase reaction (10 μL system)
2.5 μL of 4× test compound was added to each reaction well of the 384 plate, and the corresponding volume of 8% DMSO was added to the control well. The plate was placed on ice. 5 μL of a mixture of kinase/peptide substrate, 2.5 μL of kinase buffer and ATP solution were successively added to each well. Three control groups were set up: Group C1 contains only kinase buffer, group C2 contains the mixture of kinase/peptide substrate, kinase buffer and ATP, and group C3 contains 5 μL of PP solution. After adding the reaction components, the 384-well plate was sealed and incubated at 25-30° C. for 1 h in dark.
5 μL of Development solution was added to each well, sealed and incubated at 25-30° C. for another 1 h in dark.
3) Reaction stopping and plate reading
5 μL of stopping solution was added to each well. The Coumarin value (excitation at 400 nm, emission at 445 nm) and Fluorescein value (excitation at 400 nm, emission at 520 nm) were measured, respectively.
ER (emission ratio): Coumarin emission read-out (445 nm)/Fluorescein emission read-out (520 nm); • C3 445 nm: 100% phosphorylated Coumarin emission read-out; • C3 520 nm: 100% phosphorylated Fluorescein emission read-out; • C1 445 nm: 0% phosphorylated Coumarin emission read-out; • C1 520 nm: 0% phosphorylated Fluorescein emission read-out. Inhibition rate % (IR)=[1−% phosphorylation ratetest sample/100% phosphorylation ratecontrol]×100%
% phosphorylation ratetest sample: phosphorylation rate of the test compound; • 100% phosphorylation ratecontrol: phosphorylation rate of C3 control group.
5. IC50 values: calculated by using software XL-Fit™ (version 5.3) supplied by ID Business Solutions (Guildford, UK), which is an additional software to Microsoft Excel.

[2] = target: CSF1R phosphorylation in THP-1 cells (Homo sapiens (Human), UniProt P07333); test: Detection of CSF1R phosphorylation activity at cell level (THP-1, M-CSF stimulated, ELISA); assay type: cell-based; conditions: p-CSF1R ELISA, compound 60 min, 300 ng/mL M-CSF 1 min
Chain of CSF1R phosphorylation in THP-1 cells (P07333 20-972): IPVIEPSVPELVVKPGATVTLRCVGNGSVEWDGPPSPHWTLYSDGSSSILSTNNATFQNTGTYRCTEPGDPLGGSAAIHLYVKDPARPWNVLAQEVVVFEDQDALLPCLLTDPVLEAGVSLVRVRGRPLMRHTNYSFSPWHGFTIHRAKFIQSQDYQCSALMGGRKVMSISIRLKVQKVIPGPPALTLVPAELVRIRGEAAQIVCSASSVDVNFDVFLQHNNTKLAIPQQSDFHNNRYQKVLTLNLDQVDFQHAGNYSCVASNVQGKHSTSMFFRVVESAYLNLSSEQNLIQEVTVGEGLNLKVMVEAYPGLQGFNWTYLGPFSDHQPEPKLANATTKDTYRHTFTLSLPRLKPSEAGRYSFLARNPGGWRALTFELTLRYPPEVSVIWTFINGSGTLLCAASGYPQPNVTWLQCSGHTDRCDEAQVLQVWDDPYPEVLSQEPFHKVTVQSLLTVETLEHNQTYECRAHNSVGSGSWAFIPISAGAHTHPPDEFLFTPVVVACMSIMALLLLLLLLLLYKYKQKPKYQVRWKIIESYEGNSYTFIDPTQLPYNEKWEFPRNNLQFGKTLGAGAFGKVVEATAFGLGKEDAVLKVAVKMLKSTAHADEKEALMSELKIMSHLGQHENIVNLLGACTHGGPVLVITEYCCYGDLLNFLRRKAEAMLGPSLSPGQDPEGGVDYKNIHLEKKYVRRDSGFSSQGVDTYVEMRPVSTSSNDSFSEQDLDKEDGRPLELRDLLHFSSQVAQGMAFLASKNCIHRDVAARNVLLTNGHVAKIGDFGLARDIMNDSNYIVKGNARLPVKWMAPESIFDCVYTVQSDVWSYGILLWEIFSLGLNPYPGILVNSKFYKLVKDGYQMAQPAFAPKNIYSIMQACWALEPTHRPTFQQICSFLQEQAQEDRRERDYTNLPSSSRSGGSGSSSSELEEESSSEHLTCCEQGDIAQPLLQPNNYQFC
Experimental: Detection of CSF1R Phosphorylation Activity at Cell Level
THP-1 (ATCC), human acute monocytic leukemia cells. The cells were cultured in an RPMI 1640 medium containing 10% FBS.
(§1) 2. Reagents and instruments
• Human phosphorylation-CSF1R ELISA kit: R&D, #DYC3268-2; • RPMI 1640 culture solution: GIBCO, 910491; • Human M-CSF recombinant cytokine: R&D, 9216-MC-500; • Cell lysis buffer: Cell Signal, 99803S; • 1×PBS buffer (1 L): 8.0 g of NaCl, 0.2 g of KCl, 3.58 g of Na2HPO4-12H2O, 0.24 g of KH2PO4 were dissolved in 1 L of dd H2O, and the pH was adjusted to 7.4; • Blocking solution: PBS buffer containing 1% BSA; • PBST washing liquid: PBS buffer containing 0.05% Tween-20; • Chromogenic substrate: R&D, #DY999; • 2N H2SO4; • Microwell plate reader: Labsystems Multiskan K3: Thermo; Envision: Perkin Elmer; • ELISA plate: Corning, #9018; • Cell culture plate: Facol, #353027. 3. Treatment of cells and preparation of lysis buffer
THP-1 cells were resuspended in RPMI-1640 culture solution containing 2% FBS, and the culture was added to a 96-well plate at a density of 5×10^4/well, 50 μL/well, and cultured in a cell incubator at 5% CO2 and 37° C. overnight; The test compound was diluted with a serum-free RPMI-1640 medium to 3, 1.1, 0.37, 0.12, 0.04, 0.014, 0.005 and 0.002 μM, and the concentration of DMSO was 5%. 5 μL of the diluted compound was added to the 50 μL cell culture system, the culture was cultured in a 5% CO2, 37° C. cell incubator for 60 min, 300 ng/mL of M-CSF was added to the cells, and the mixture was stimulated in the 37° C. cell incubator for 1 min, added 50 μL of cell lysis buffer, and stored in a refrigerator at −80° C.
100 μL/well of the p-CSF1R capture antibody diluted to 0.8 μg/mL with PBS was added to the ELISA plate, and the plate was coated on a shaker at room temperature overnight. The culture was washed with PBST, and then added blocking solution and incubated at room temperature for 2 h. The culture was washed with PBST, added 90 μL of cell lysis buffer, and incubated on a shaker at 25° C. for 2 h. The plate was washed with PBST three times, added 100 μL of anti-p-tyrosine-HRP detection antibody diluted with 0.1% PBS-BSA diluent, and incubated on a shaker at 25° C. for 2 h. The plate was washed with PBST washing liquid, added 100 μL of chromogenic substrate and incubated at room temperature for 10-20 min. The reaction was stopped by adding 50 μL of 2N H2SO4. The optical density signal (450/570 nm) of each well was detected in Labsystems Multiskan K3 or Envision.
wherein • Drug-treated well read-out: indicating the optical density signal of a cell well with the test compound treatment. • Background read-out: indicating the optical density signal of a well without cells but with cell lysis buffer. • Cell well read-out: indicating the optical density signal of a cell well not treated with the compound. 6. Calculation of IC50: obtained by using XL-Fit 5.3 software. 7. Test results

Ba/F3^BCR-FMS-11 cells = test: Cell proliferation experiment (Ba/F3^BCR-FMS-11, cckit-8); assay type: cell-based, mouse; conditions: Ba/F3^BCR-FMS-11 cell proliferation
Experimental: Cell Proliferation Experiment
Ba/F3^BCR-FMS-11, mouse primary B lymphocytes stably expressing the BCR-FMS fusion gene. The cells were cultured in an RPMI 1640 medium containing 10% FBS.
as §1
• cckit-8 kit: Dojindo, 9 CK04; • Envision: Perkin Elmer; • Cell culture plate: Facol, 9353027. 3. Experimental steps
The BCR-FMS fusion gene was transfected into Ba/F3 cells, and the cell line Ba/F3^BCR-FMS-11 that stably expresses BCR-FMS and grows depending on CSF-1R was screened. Ba/F3^BCR-FMS-11 cell proliferation experiments is completed by using the Cell Counting kit cckit-8 in a 96-well plate. In a 96-well plate, 5000/well of Ba/F3^BCR-FMS-11 cells were inoculated at 100 μL/well. […] 10 μL of the compound dilutions with the above 8 concentrations were added to the culture cell wells. The culture was incubated in a 37° C. and 5% CO2 cell incubator for 72 hours. 10 μL of Cell Counting kit cckit-8 detection reagent was added to each well, and incubated at 37° C. and 5% CO2 in a cell incubator for another 1 h. The optical density absorption value at 450 nm of each well was detected by using Perkin Elmer Envision instrument.
wherein • Drug-treated well read-out: indicating the optical density signal of a cell well with the test compound treatment. • Cell well read-out: indicating the optical density signal of a cell well not treated with the test compound (only 0.5% DMSO). • Background read-out: indicating the optical density signal of a well with the cell medium. 5. Calculation of IC50: obtained by using XL-Fit 5.3 software. 6. Test results

Chain of Recombinant human CSF1R kinase (P07333 20-972): as above

Row | IC50 [1] | IC50 [2] | IC50 (Ba/F3^BCR-FMS-11 cells; Mus musculus, 72 h) | IC50 (Ba/F3^BCR-FMS-11 cells; 72 hours) | Structure (SMILES) | IC50 (Ba/F3^BCR-FMS-11 cells; Mus musculus, 72 hours)
1 | 4 nM | 21 nM | 8 nM | – | CC(C)n1cncc(C(=O)Nc2ccc(Oc3ccnc(-c4cnn(C)c4)c3)cn2)c1=O [Compound 56] | –
2 | 24 nM | 43 nM | 12 nM | – | CC(C)n1cc(Cl)cc(C(=O)Nc2ccc(Oc3ccnc(-c4cnn(C)c4)c3)cn2)c1=O [Compound 57] | –
3 | 69 nM | 126 nM | 179 nM | – | Cn1cc(-c2cc(Oc3ccc(NC(=O)c4nccn(C)c4=O)nc3)ccn2)cn1 [Compound 58] | –
4 | 8 nM | 14 nM | 15 nM | – | CC(C)n1nccc(C(=O)Nc2ccc(Oc3ccnc(-c4cnn(C)c4)c3)cn2)c1=O [Compound 60] | –
5 | 45 nM | 75 nM | 87 nM | – | Cn1cc(-c2cc(Oc3ccc(NC(=O)c4cccn(C(F)F)c4=O)nc3)ccn2)cn1 [Compound 61] | –
6 | 20 nM | 9 nM | 32 nM | – | Cc1ncc(-c2cc(Oc3ccc(NC(=O)c4cnc(C)n(C)c4=O)nc3)ccn2)s1 [Compound 62] | –
7 | 9 nM | 5 nM | 8 nM | – | Cc1ncc(C(=O)Nc2ccc(Oc3ccnc(Nc4cnn(C)c4)c3)cn2)c(=O)n1C [Compound 63] | –
8 | 16 nM | 21 nM | 40 nM | – | Cc1ncc(C(=O)Nc2ccc(Oc3ccnc(-c4ccc5nccn5c4)c3)cn2)c(=O)n1C [Compound 64] | –
9 | 5 nM | 10 nM | 8 nM | – | Cc1ncc(C(=O)Nc2ccc(Oc3ccnc(Nc4ccccn4)c3)cn2)c(=O)n1C [Compound 65] | –
10 | 54 nM | 23 nM | 55 nM | – | Cc1ncc(C(=O)Nc2ccc(Oc3ccnc(-c4ccn5ccnc5c4)c3)cn2)c(=O)n1C [Compound 66] | –
11 | 33 nM | 9 nM | – | 25 nM | Cn1cc(Nc2cc(Oc3ccc(NC(=O)c4cccn(C)c4=O)nc3)ccn2)cn1 [Compound 67] | –
12 | 7 nM | 6 nM | 12 nM | – | Cc1ncc(C(=O)Nc2ccc(Oc3ccnc(Nc4ccn(C(F)F)n4)c3)cn2)c(=O)n1C [Compound 68] | –
13 | 3 nM | 3 nM | 4 nM | – | O=C(Nc1ccc(Oc2ccnc(Nc3ccn(C(F)F)n3)c2)cn1)c1cnc2n(c1=O)CCC2 [Compound 69] | –
14 | 32 nM | 203 nM | 225 nM | – | CC(C)n1cccc(C(=O)Nc2ccc(Oc3ccnc(-c4ccnn4C)c3)cn2)c1=O [Compound 70] | –
15 | 10 nM | 36 nM | 51 nM | – | CC(C)n1cccc(C(=O)Nc2ccc(Oc3ccnc(-c4ccn(C)n4)c3)cn2)c1=O [Compound 71] | –
16 | 14 nM | 16 nM | 7 nM | – | Cn1cc(-c2cc(Oc3ccc(NC(=O)c4cc5ccccc5n(C)c4=O)nc3)ccn2)cn1 [Compound 72] | –

Row | IC50 [1] | IC50 [2] | IC50 (Ba/F3^BCR-FMS-11 cells; Mus musculus, 72 h) | IC50 (Ba/F3^BCR-FMS-11 cells; 72 hours) | Structure (SMILES) | IC50 (Ba/F3^BCR-FMS-11 cells; Mus musculus, 72 hours)
17 | 11 nM | 31 nM | 17 nM | – | CC(C)c1ncc(C(=O)Nc2ccc(Oc3ccnc(-c4cnn(C)c4)c3)cn2)c(=O)n1C [Compound 73] | –
18 | 8 nM | 14 nM | 7 nM | – | Cc1c(F)cc(C(=O)Nc2ccc(Oc3ccnc(Nc4cnn(C)c4)c3)cn2)c(=O)n1C [Compound 75] | –
19 | 5 nM | 18 nM | 4 nM | – | Cc1c(F)cc(C(=O)Nc2ccc(Oc3ccnc(Nc4ccnn4C)c3)cn2)c(=O)n1C [Compound 76] | –
20 | 6 nM | 10 nM | 5 nM | – | Cn1nccc1Nc1cc(Oc2ccc(NC(=O)c3cc(F)cn(C)c3=O)nc2)ccn1 [Compound 77] | –
21 | 15 nM | 11 nM | 11 nM | – | Cn1cc(Nc2cc(Oc3ccc(NC(=O)c4cc(F)cn(C)c4=O)nc3)ccn2)cn1 [Compound 78] | –
22 | 4 nM | 3 nM | 5 nM | – | Cn1cc(-c2cc(Oc3ccc(NC(=O)c4cc(F)cn(C)c4=O)nc3)ccn2)cn1 [Compound 80] | –
23 | 6 nM | 11 nM | 9 nM | – | COCCn1cccc(C(=O)Nc2ccc(Oc3ccnc(-c4cnn(C)c4)c3)cn2)c1=O [Compound 82] | –
24 | 9 nM | 13 nM | 7 nM | – | Cn1cc(-c2cc(Oc3ccc(NC(=O)c4cccn(C5COC5)c4=O)nc3)ccn2)cn1 [Compound 83] | –
25 | 6 nM | 10 nM | 8 nM | – | Cn1cc(-c2cc(Oc3ccc(NC(=O)c4cccn(CCO)c4=O)nc3)ccn2)cn1 [Compound 84] | –
26 | 5 nM | 5 nM | 7 nM | – | Cn1cc(-c2cc(Oc3ccc(NC(=O)c4cccn(C)c4=O)nc3)ccn2)cn1 [Compound 85] | –
27 | 5 nM | 7 nM | 7 nM | – | CC(C)n1cccc(C(=O)Nc2ccc(Oc3ccnc(-c4cnn(C)c4)c3)cn2)c1=O [Compound 86] | –
28 | 3 nM | 10 nM | 8 nM | – | C=CCn1cccc(C(=O)Nc2ccc(Oc3ccnc(-c4cnn(C)c4)c3)cn2)c1=O [Compound 88] | –
29 | 8 nM | 16 nM | 8 nM | – | Cn1cc(-c2cc(Oc3ccc(NC(=O)c4cccn(C5CCC5)c4=O)nc3)ccn2)cn1 [Compound 89] | –
30 | 6 nM | 10 nM | 2 nM | – | Cn1cc(-c2cc(Oc3ccc(NC(=O)c4ccc(C(F)(F)F)n(C)c4=O)nc3)ccn2)cn1 [Compound 90] | –
31 | 3 nM | 9 nM | 3 nM | – | Cc1ccc(C(=O)Nc2ccc(Oc3ccnc(-c4cnn(C)c4)c3)cn2)c(=O)n1C [Compound 91] | –
32 | 17 nM | 61 nM | 13 nM | – | Cc1nc(NC(=O)c2cccn(C(C)C)c2=O)ccc1Oc1ccnc(-c2cnn(C)c2)c1 [Compound 93, 1-isopropyl-N-(6-methyl-5-((2-(1-methyl-1H-pyrazol-4-yl)pyridin-4-yl)oxy)pyridin-2-yl)-2-oxo-1,2-dihydropyridine-3-carboxamide] | –

Row | Structure (SMILES) | IC50 [1] | IC50 [2] | IC50 (Ba/F3^BCR-FMS-11 cells; Mus musculus, 72 h) | IC50 (Ba/F3^BCR-FMS-11 cells; 72 hours) | IC50 (Ba/F3^BCR-FMS-11 cells; Mus musculus, 72 hours)
33 | CN(C)CCn1cccc(C(=O)Nc2ccc(Oc3ccnc(-c4cnn(C)c4)c3)cn2)c1=O [Compound 81, 1-(2-(dimethylamino)ethyl)-N-(5-((2-(1-methyl-1H-pyrazol-4-yl)pyridin-4-yl)oxy)pyridin-2-yl)-2-oxo-1,2-dihydropyridine-3-carboxamide] | 34 nM | 145 nM | – | – | 143 nM
